Legend:
[1] = biological target: T1, IL17A (Homo sapiens, UniProt Q16552); assay: Surface Plasmon Resonance (SPR) analysis of compound interactions with IL17A; details: SPR binding to IL17A
T1 sequence (Q16552 24-155): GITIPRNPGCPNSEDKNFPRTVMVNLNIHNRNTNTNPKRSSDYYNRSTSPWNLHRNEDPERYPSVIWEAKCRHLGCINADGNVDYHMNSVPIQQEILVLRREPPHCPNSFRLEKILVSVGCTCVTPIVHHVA
In short: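 His-tagged IL17A captured on a Ni-NTA chip; five 2- or 3-fold compound dilutions from 50 μM injected for 180 s, 120 s dissociation, in HEPES-saline buffer with 0.5% DMSO. Baseline-subtracted sensorgrams fitted 1:1 for ka, kd and KD; Kd also derived from binding extent per concentration.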

[2] = tested on: IL-17-induced GROα secretion from HT-29 cells; assay: HT-29 cellular assay (IL-17-induced GROα secretion); type: cell-based; details: Homo sapiens
Method: To test the ability of a compound of the invention to neutralize or antagonize IL-17 bioactivity, the following cell-based assay was used. IL-17 can stimulate epithelial cells and other cells to secrete GROα. The ability of a compound of the invention to neutralize IL-17-induced GROα secretion from the human colorectal adenocarcinoma epithelial cell line HT-29 is tested in this assay.
HT-29 cells (human colorectal adenocarcinoma epithelial cells, ATCC #HTB-38), were maintained in culture/assay medium in tissue culture-treated flasks using standard techniques. HT-29 cells were grown in tissue culture flasks until they were 50-80% confluent on the day before the assay. The day before the assay, the cells were detached from the culture flasks with trypsin+EDTA. The trypsin was inactivated with complete assay medium. HT-29 cells were then centrifuged at 500×g for 5 minutes at room temperature. The cell pellet was then re-suspended in Defined Keratinocyte SFM (Invitrogen #10766019)+10% FCS and 50,000 HT-29 cells (in 100 μl) were added to each treatment well of the 96-well plates. The 96-well plates were placed in a tissue culture incubator (37° C., 5% CO2) overnight. The next day, the media was removed from the cells and the cells were washed twice with Defined Keratinocyte SFM. In a separate 96-well plate, compounds to be tested were serially diluted in Defined Keratinocyte SFM and run in triplicate in 100 μL total volume. To these compound samples were then added 100 μL of human IL-17 at a concentration of 20 ng/mL in Defined Keratinocyte SFM for serum-free assays. 150 μL of the compound/IL-17 mixture was then added to the cells from which the media has previously been removed. The cells were grown for 48 hours in Defined Keratinocyte SFM in a tissue culture incubator (37° C., 5% CO2).
At the end of the incubation, the plates are centrifuged (500×g for 5 minutes at room temperature), and the cell culture media is transferred to polypropylene 96-well plates. The supernatant was used neat in the ELISA. GROα levels are measured with a GROα sandwich ELISA (R+D Systems DuoSet #DY275E), as per the manufacturer's instructions. The ELISA plates were previously coated with mAb 275 (R+D Systems) at 4 μg/mL. GROα is detected using biotinylated goat anti-human GROα (R+D Systems BAF275) at 200 ng/mL using TMB as a substrate. At the end of the ELISA reactions, plates are read at 450 nm on a microplate reader and compared to a standard calibration curve.

[3] = biological target: T2, recombinant human IL17a (binding to its receptor IL17R) (Homo sapiens, UniProt Q16552); assay: IL-17 competition ELISA I (IL17a coated, IL17R/Fc binding)
T2 construct: purchased R&D Systems 317-ILB (IL17a); 177-IR (IL17R/Fc)
T2 sequence (Q16552 20-155 limits assumed): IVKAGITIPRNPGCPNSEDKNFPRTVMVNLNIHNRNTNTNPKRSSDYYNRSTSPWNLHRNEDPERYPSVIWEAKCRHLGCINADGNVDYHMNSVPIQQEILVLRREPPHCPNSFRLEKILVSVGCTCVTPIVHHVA
In short: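 Plates coated with 20 nM recombinant human IL17a received compound dilutions and 12 nM IL17R/Fc (final) for 30 min at room temperature. Bound receptor was detected with HRP anti-human Fc and TMB, read at 450 nm. IC50 came from a 4-parameter logistic fit between no-competitor and blank controls.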

Row | Structure (SMILES) | Kd [1] | IC50 [2] | IC50 [3]
1 | O=C1CNC(=O)[C@@H](Cc2ccc(NC(=O)[C@H](Cc3ccccc3Cl)NC(=O)Cc3ccccc3)cc2)NC(=O)CC2(CCCC2)CC(=O)N[C@@H](C(=O)O)CCCCN1 [Compound 180] | < 100 nM | < 1000 nM | < 100 nM
2 | COC(=O)[C@H]1CCCCNC(=O)CNC(=O)[C@@H](Cc2ccc(NC(=O)[C@H](Cc3ccccc3Cl)NC(=O)Cc3ccccc3)cc2)NC(=O)CC2(CCCC2)CC(=O)N1 [Compound 141] | < 100 nM | 1000 to 10000 nM | 
3 | COC(=O)[C@@H]1CCCCNC(=O)CNC(=O)[C@@H](Cc2ccc(NC(=O)[C@H](Cc3ccccc3F)NC(=O)Cc3ccccc3)cc2)NC(=O)CC2(CCCC2)CC(=O)N1 [Compound 108] | < 100 nM | 1000 to 10000 nM | 
4 | O=C1CNC(=O)[C@@H](Cc2ccc(NC(=O)[C@H](Cc3ccccc3F)NC(=O)Cc3ccccc3)cc2)NC(=O)CC2(CCCC2)CC(=O)N[C@H](C(=O)O)CCCCN1 [Compound 177] | < 100 nM | 1000 to 10000 nM | 
5 | O=C1CNC(=O)[C@@H](Cc2ccc(NC(=O)[C@H](Cc3c(F)cccc3F)NC(=O)Cc3ccccc3)cc2)NC(=O)CC2(CCCC2)CC(=O)NCCCCCN1 [Compound 184] | < 100 nM | 1000 to 10000 nM | 

Second part, led by results:

Row | Kd [1] | IC50 [2] | Structure (SMILES) | IC50 [3]
6 | 100 to 1000 nM | > 10000 nM | COC(=O)[C@@H]1CCCCNC(=O)CCCNC(=O)[C@@H](Cc2ccc(NC(=O)[C@H](Cc3ccccc3Cl)NC(=O)c3ccccc3)cc2)NC(=O)CC2(CCCC2)CC(=O)N1 [Compound 113] | 
7 | 100 to 1000 nM | 1000 to 10000 nM | COC(=O)[C@@H]1CCCCNC(=O)CCNC(=O)[C@@H](Cc2ccc(NC(=O)[C@H](Cc3ccccc3F)NC(=O)Cc3ccccc3)cc2)NC(=O)CC2(CCCC2)CC(=O)N1 [Compound 109] | 
8 | 100 to 1000 nM | > 10000 nM | COC(=O)[C@@H]1CCCCNC(=O)CCCCNC(=O)[C@@H](Cc2ccc(NC(=O)[C@H](Cc3ccccc3F)NC(=O)Cc3ccccc3)cc2)NC(=O)CC2(CCCC2)CC(=O)N1 [Compound 110] | 
9 | < 100 nM | 1000 to 10000 nM | O=C1CNC(=O)[C@@H](Cc2ccc(NC(=O)[C@H](Cc3ccccc3Br)NC(=O)Cc3ccccc3)cc2)NC(=O)CC2(CCCC2)CC(=O)NCCCCCN1 [Compound 187] | < 100 nM
10 | 100 to 1000 nM | > 10000 nM | COC(=O)[C@H]1CCCCNC(=O)CCCNC(=O)[C@@H](Cc2ccc(NC(=O)[C@H](Cc3ccccc3F)NC(=O)Cc3ccccc3)cc2)NC(=O)CC2(CCCC2)CC(=O)N1 [Compound 107] | 
11 | < 100 nM | 1000 to 10000 nM | COC(=O)[C@@H]1CCCCNC(=O)CCCNC(=O)[C@@H](Cc2ccc(NC(=O)[C@H](Cc3ccccc3Cl)NC(=O)Cc3ccccc3)cc2)NC(=O)CC2(CCCC2)CC(=O)N1 [Compound 112] | 
